Source: ChEMBL document CHEMBL4402554, “Discovery of a Bromodomain and Extraterminal Inhibitor with a Low Predicted Human Dose through Synergistic Use of Encoded Library Technology and Fragment Screening” (J Med Chem, 2020)
Values joined by “and” are separate entries in the source; they are usually repeats but may differ in a detail not shown here. Equal entries are not always repeated. Active and inactive are the calls of the source. No cut-off for these calls is given here.

Columns and labels:
[1] = target: T1, Bromodomain-containing protein 4 (Homo sapiens, UniProt O60885, Y390A); assay: Displacement of Alexa Fluor 647 labelled ligand from recombinant human N-terminal His6-tagged BRD4 BD1 (1 to 477 residues)/BD2 Y390A mutant incubated for 30 mins by TR-FRET assay
[2] = target: Bromodomain adjacent to zinc finger domain protein 2A (Homo sapiens, UniProt Q9UIF9); assay: Inhibition of BAZ2A (unknown origin) by TR-FRET assay
Sequence of Bromodomain adjacent to zinc finger domain protein 2A (Q9UIF9 whole entry, the tested form may be a part): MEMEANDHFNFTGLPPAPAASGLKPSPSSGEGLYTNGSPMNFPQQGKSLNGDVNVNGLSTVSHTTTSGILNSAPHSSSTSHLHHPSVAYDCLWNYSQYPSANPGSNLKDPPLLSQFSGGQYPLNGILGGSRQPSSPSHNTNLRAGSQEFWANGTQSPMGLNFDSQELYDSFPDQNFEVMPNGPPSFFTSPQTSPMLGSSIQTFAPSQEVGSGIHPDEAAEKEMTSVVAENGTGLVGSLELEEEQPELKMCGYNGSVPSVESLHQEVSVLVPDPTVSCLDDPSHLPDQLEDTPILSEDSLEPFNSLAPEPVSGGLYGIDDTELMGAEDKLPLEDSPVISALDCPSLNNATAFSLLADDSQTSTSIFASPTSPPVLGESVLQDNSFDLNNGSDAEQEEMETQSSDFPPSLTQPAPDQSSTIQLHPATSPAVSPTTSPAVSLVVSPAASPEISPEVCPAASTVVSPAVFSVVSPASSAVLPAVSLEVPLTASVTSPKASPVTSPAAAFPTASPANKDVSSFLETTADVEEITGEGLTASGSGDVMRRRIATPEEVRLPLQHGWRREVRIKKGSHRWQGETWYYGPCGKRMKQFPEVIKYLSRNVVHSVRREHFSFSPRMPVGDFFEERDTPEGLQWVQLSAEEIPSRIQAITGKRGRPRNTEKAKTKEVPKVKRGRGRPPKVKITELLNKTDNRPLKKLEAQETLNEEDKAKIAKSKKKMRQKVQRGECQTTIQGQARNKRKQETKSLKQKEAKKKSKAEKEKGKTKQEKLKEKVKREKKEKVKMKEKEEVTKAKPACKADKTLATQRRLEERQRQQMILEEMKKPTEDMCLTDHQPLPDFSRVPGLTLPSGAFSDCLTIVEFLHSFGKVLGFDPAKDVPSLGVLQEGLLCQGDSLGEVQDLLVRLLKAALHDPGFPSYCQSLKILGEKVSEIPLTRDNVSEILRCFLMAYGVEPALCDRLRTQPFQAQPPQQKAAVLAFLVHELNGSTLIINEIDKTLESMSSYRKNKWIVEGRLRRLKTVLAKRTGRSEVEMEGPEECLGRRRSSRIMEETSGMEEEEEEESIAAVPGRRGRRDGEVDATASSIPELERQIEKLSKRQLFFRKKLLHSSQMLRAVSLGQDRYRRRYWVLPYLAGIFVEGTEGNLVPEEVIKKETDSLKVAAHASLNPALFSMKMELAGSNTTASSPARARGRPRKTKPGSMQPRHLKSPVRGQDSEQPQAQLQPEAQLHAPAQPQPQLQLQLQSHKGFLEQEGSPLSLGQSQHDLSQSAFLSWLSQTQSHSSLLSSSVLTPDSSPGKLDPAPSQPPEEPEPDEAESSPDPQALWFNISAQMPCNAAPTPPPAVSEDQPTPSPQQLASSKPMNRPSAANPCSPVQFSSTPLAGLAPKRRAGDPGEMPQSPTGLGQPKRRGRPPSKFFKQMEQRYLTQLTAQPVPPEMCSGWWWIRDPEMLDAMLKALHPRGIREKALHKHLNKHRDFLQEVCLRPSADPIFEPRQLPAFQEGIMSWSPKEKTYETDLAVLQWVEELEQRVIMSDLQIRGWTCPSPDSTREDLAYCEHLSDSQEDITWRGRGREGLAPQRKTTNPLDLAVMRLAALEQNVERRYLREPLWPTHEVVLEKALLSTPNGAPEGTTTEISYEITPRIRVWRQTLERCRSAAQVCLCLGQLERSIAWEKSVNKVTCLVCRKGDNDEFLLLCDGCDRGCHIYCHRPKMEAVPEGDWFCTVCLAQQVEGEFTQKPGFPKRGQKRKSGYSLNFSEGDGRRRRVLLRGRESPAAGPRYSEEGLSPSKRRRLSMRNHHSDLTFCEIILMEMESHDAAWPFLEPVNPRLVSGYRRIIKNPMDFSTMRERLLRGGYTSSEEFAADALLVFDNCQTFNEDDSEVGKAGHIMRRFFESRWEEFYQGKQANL

[3] = species: Homo sapiens; assay: Selectivity ratio of pIC50 for Alexa Fluor 647 labelled ligand from recombinant human N-terminal His6-tagged BRD4 BD1 (1 to 477 residues)/BD2 Y390A mutant to pIC50 for BAZ2A (unknown origin)
[4] = Metabolic stability in rat liver microsomes; assay type: ADME, Microsome
[5] = Stability in rat hepatocytes; assay type: ADME, cell-based, Hepatocyte
[6] = Fraction unbound in rat plasma at 1 mg/kg, iv; assay type: ADME, organism-based
[7] = Unbound clearance in rat at 1 mg/kg, iv; assay type: ADME, organism-based; conditions: in vivo
[8] = Clearance in rat at 1 mg/kg, iv; assay type: ADME, organism-based; conditions: in vivo
[9] = Volume of distribution at steady state in rat at 1 mg/kg, iv; assay type: ADME, organism-based; conditions: in vivo, read-out: Vdss
[10] = Half life in rat at 1 mg/kg, iv; assay type: ADME, organism-based; conditions: in vivo
[11] = Metabolic stability in dog liver microsomes; assay type: ADME, Canis lupus familiaris, Microsome
[12] = Stability in dog hepatocytes; assay type: ADME, cell-based, Canis lupus familiaris, Hepatocyte
[13] = Fraction unbound in dog plasma at 0.5 mg/kg, iv; assay type: ADME, organism-based, Canis lupus familiaris
[14] = Clearance in dog at 0.5 mg/kg, iv; assay type: ADME, organism-based, Canis lupus familiaris; conditions: in vivo
[15] = Unbound clearance in dog at 0.5 mg/kg, iv; assay type: ADME, organism-based, Canis lupus familiaris; conditions: in vivo
[16] = Volume of distribution at steady state in dog at 0.5 mg/kg, iv; assay type: ADME, organism-based, Canis lupus familiaris; conditions: in vivo; for Vd: read-out: Vdss
[17] = Half life in dog at 0.5 mg/kg, iv; assay type: ADME, organism-based, Canis lupus familiaris; conditions: in vivo
[18] = Oral bioavailability in dog at 1 mg/kg; assay type: ADME, organism-based, Canis lupus familiaris; conditions: in vivo
[19] = Metabolic stability in human liver microsomes; assay type: ADME, Microsome
[20] = Stability in human hepatocytes; assay type: ADME, cell-based, Hepatocyte
[21] = Fraction unbound in human plasma; assay type: ADME, cell-free
[22] = Oral bioavailability in rat at 3 mg/kg; conditions: in vivo
[23] = target: T1, Bromodomain-containing protein 4; assay: Displacement of Alexa Fluor 647 labelled ligand from recombinant human N-terminal His6-tagged BRD4 BD1 (1 to 477 residues)/BD2 Y390A mutant incubated for 60 mins by fluorescence polarization assay
[24] = Lipophilicity, log D of the compound at pH 7.4 by chromatographic method; assay type: physicochemical; conditions: buffer
[25] = system: Blood; assay: Inhibition of LPS-induced IL6 production in human whole blood preincubated for 30 mins followed by LPS addition measured after 18 to 24 hrs; assay type: functional, tissue-based
[26] = system: Blood; assay: Inhibition of LPS-induced MCP1 production in human whole blood preincubated for 30 mins followed by LPS addition measured after 18 to 24 hrs; assay type: functional, tissue-based
[27] = Solubility of compound in pH 6.5 FASSIF at 1 mg incubated for 4 hrs by HPLC-UV analysis; assay type: physicochemical
[28] = Metabolic stability in CD-1 mouse liver microsomes; assay type: ADME, Microsome
[29] = Stability in CD-1 mouse hepatocytes; assay type: ADME, cell-based, Hepatocyte
[30] = AUC (0 to infinity) in CD-1 mouse at 3 mg/kg, po; assay type: ADME, organism-based; design: dose 3 mg/kg, route oral, time infinity; conditions: in vivo
[31] = AUC (0 to infinity) in rat at 3 mg/kg, po; assay type: ADME, organism-based; design: dose 3 mg/kg, route oral, time infinity; conditions: in vivo
[32] = AUC (0 to infinity) in rat at 30 mg/kg, po; assay type: ADME, organism-based; design: dose 30 mg/kg, route oral, time infinity; conditions: in vivo
[33] = Oral bioavailability in rat at 30 mg/kg; assay type: ADME, organism-based; conditions: in vivo
[34] = AUC (0 to infinity) in dog at 1.5 mg/kg, po; assay type: ADME, organism-based, Canis lupus familiaris; design: dose 1.5 mg/kg, route oral, time infinity; conditions: in vivo
[35] = system: Mus musculus; assay: Antiinflammatory activity in LPS-challenged CD-1 mouse assessed as reduction in cytokine production at 1 to 10 mg/kg, po administrated as single dose 30 mins prior to LPS challenge measured after 5 hrs by immunoassay; assay type: functional, organism-based
[36] = system: Mus musculus; assay: Antiinflammatory activity in TNP-KLH- treated CD-1 mouse T cell-dependent immunization model assessed as IgG1 level at 3 mg/kg, po qd treated for 0.5 hrs followed by TNP-KLH treatment and measured after 14 days by ELISA analysis; assay type: functional
[37] = system: Mus musculus; assay: Antiinflammatory activity in TNP-KLH- treated CD-1 mouse T cell-dependent immunization model assessed as IgG1 level at 0.3 mg/kg, po qd treated for 0.5 hrs followed by TNP-KLH treatment and measured after 14 days by ELISA analysis; assay type: functional
[38] = system: Mus musculus; assay: Antiinflammatory activity in TNP-KLH- treated CD-1 mouse T cell-dependent immunization model assessed as IgG1 level at 3 mg/kg, po qod treated for 0.5 hrs followed by TNP-KLH treatment and measured after 14 days by ELISA analysis; assay type: functional

Cc1cc(-c2nc3ccccc3n2CCC2CCOCC2)cn(C)c1=O
IC50 [1]: 50.1 nM | IC50 [2]: 39800 nM | Ratio pIC50 [3]: 2.9

CC(=O)N1CC(Cn2c(-c3cc(C)c(O)c(C)c3)nc3ccccc32)C1
IC50 [1]: 1580 nM

COCC(COC)n1c(-c2cc(C)c(=O)n(C)c2)nc2ccccc21
IC50 [1]: 39.8 nM | IC50 [2]: > 100000 nM | Stability [4]: < 0.46 mL/min/g | Stability [5]: 1.1 mL/min/g | fraction unbound [6]: 0.59 | CL free [7]: 63 mL/min/kg | clearance [8]: 37 mL/min/kg | Vd [9]: 2.1 L/kg | half-life [10]: 3.2 h | Stability [11]: < 0.37 mL/min/g | Stability [12]: < 1.3 mL/min/g | fraction unbound [13]: 0.57 | clearance [14]: 5 mL/min/kg | CL free [15]: 9 mL/min/kg | Vd [16]: 0.8 L/kg | half-life [17]: 1.7 h | bioavailability [18]: 46% | Stability [19]: < 0.4 mL/min/g | Stability [20]: < 0.87 mL/min/g | fraction unbound [21]: 0.37 | Ratio pIC50 [3]: > 3.7 | bioavailability [22]: 46%

CNC(=O)c1ccc2c(c1)nc(-c1cc(C)c(O)c(C)c1)n2CC1CCN(C(=O)c2ccccc2)CC1
IC50 [23]: 126 nM | IC50 [1]: 200 nM | chromatographic logD [24]: 3.2

O=C(CO)N1CCC(Cn2c(-c3ccc(=O)[nH]c3)nc3ccccc32)CC1
IC50 [1]: > 50100 nM

Cc1cc(-c2nc3cc(N(C)C)ccc3n2CC2CCOCC2)cn(C)c1=O
chromatographic logD [24]: 2.9

CC(=O)N1CCC(Cn2c(-c3cc(C)c(O)c(C)c3)nc3ccccc32)C1 (racemic)
IC50 [1]: 2510 nM

Cn1cc(-c2nc[nH]c2-c2ccc(F)cc2)ccc1=O
IC50 [1]: 6310 nM

Cn1cc(-c2nc3ccccc3n2CC2CCN(C(=O)CO)CC2)ccc1=O
IC50 [1]: 7940 nM

CC(=O)N[C@H]1CC[C@H](Cn2c(-c3cc(C)c(O)c(C)c3)nc3ccccc32)CC1
IC50 [1]: 1580 nM

CC(=O)N[C@H]1CC[C@@H](Cn2c(-c3cc(C)c(O)c(C)c3)nc3ccccc32)CC1
IC50 [1]: 501 nM

Cc1cc(-c2nc3ccccc3n2C(C)C2CCOCC2)cn(C)c1=O (configuration not stated)
Ratio pIC50 [3]: 1.4 and 0.9

Cc1cc(-c2nc3ccccc3n2CC2CCOCC2)cn(C)c1=O
IC50 [25]: 200 nM | IC50 [26]: 251 nM | IC50 [2]: 316 nM | solubility at 4 h [27]: > 1000 µg/mL | Stability [4]: 3.2 mL/min/g | Stability [5]: 17 mL/min/g | fraction unbound [6]: 0.55 | CL free [7]: 149 mL/min/kg | clearance [8]: 82 mL/min/kg | Vd [9]: 1.4 L/kg | half-life [10]: 0.2 h | Stability [11]: < 0.37 mL/min/g | Stability [12]: < 1.3 mL/min/g | fraction unbound [13]: 0.47 | clearance [14]: 8 mL/min/kg | CL free [15]: 17 mL/min/kg | Vd [16]: 1.4 L/kg | half-life [17]: 2.3 h | bioavailability [18]: 97% | Stability [19]: 0.83 mL/min/g | Stability [20]: < 0.87 mL/min/g | fraction unbound [21]: 0.4

CC(=O)N1CCC(n2c(-c3cc(C)c(O)c(C)c3)nc3ccccc32)CC1
IC50 [1]: 1580 nM

Cc1cc(-c2nc3ccccc3n2CC2CCN(C(=O)CO)CC2)c[nH]c1=O
IC50 [1]: 1580 nM

Cc1cc(-c2nc3ccccc3n2CC2CC3(COC3)C2)cn(C)c1=O
IC50 [1]: 50.1 nM | IC50 [2]: 63100 nM | Stability [4]: 0.99 mL/min/g | Stability [19]: < 0.4 mL/min/g | Ratio pIC50 [3]: 3.1

CNC(=O)c1ccc2c(c1)nc(-c1cc(C)c(O)c(C)c1)n2CC1CCNCC1
IC50 [1]: 2000 nM | chromatographic logD [24]: 0.8

CNC(=O)c1ccc2c(c1)nc(-c1cc(C)c(O)c(C)c1)n2CC1CCN(C(C)=O)CC1
IC50 [23]: 251 nM | chromatographic logD [24]: 2

COCC(C)n1c(-c2cc(C)c(=O)n(C)c2)nc2ccccc21 (racemic)
IC50 [1]: 316 nM | IC50 [2]: 39800 nM | Ratio pIC50 [3]: 2.1

CC(=O)N1CCC(Cn2c(-c3cc(C)c(O)c(C)c3)nc3ccccc32)CC1
IC50 [1]: 501 nM

Cc1cc(-c2nc3ccccc3n2C[C@H]2CC[C@H](O)CC2)cn(C)c1=O
IC50 [1]: 79.4 nM | IC50 [2]: 50100 nM | Ratio pIC50 [3]: 2.8

CCC(C1CCOCC1)n1c(-c2cc(C)c(=O)n(C)c2)nc2ccccc21 (configuration not stated)
IC50 [1]: 794 nM and 158 nM | Ratio pIC50 [3]: > 2.1 and 1.6

Cc1cc(-c2nc3ccccc3n2CC2CCCOC2)cn(C)c1=O (configuration not stated)
IC50 [1]: 31.6 nM and 25.1 nM | IC50 [2]: 25100 nM and 79400 nM

Cc1cc(-c2nc3cc(N4CCOCC4)ccc3n2CC2CCOCC2)cn(C)c1=O
IC50 [1]: 10 nM | chromatographic logD [24]: 2.3 | IC50 [26]: 12.6 nM | solubility at 4 h [27]: > 1000 µg/mL

COCC(COC)n1c(-c2cc(C)c(=O)n(C)c2)nc2cc(N3CCOCC3)ccc21
IC50 [25]: 20 nM | IC50 [26]: 25.1 nM | IC50 [2]: 63100 nM | Stability [4]: < 0.46 mL/min/g | Stability [5]: < 0.8 mL/min/g | fraction unbound [6]: 0.69 | CL free [7]: 24 mL/min/kg | clearance [8]: 17 mL/min/kg | Vd [9]: 2.3 L/kg | half-life [10]: 3.8 h | Stability [11]: < 0.37 mL/min/g | Stability [12]: < 1.3 mL/min/g | fraction unbound [13]: 0.5 | CL free [15]: 4 mL/min/kg | Vdss [16]: 0.9 L/kg | t1/2 [17]: 5.3 h | bioavailability [18]: 101% | Stability [19]: < 0.4 mL/min/g | Stability [20]: < 0.87 mL/min/g | fraction unbound [21]: 0.72 | Stability [28]: < 0.48 mL/min/g | Stability [29]: < 1 mL/min/g | AUC(0-inf) [30]: 3620 ng·h/mL | AUC(0-inf) [31]: 2610 ng·h/mL | AUC(0-inf) [32]: 27000 ng·h/mL | bioavailability [33]: 93% | AUC(0-inf) [34]: 12500 ng·h/mL | Activity [35]: Active | Activity [36]: 20% | Activity [37]: 65% | Activity [38]: 65% | bioavailability [22]: 94%
